Common to all, as to type: functional
Experiment [1] deals with [Chlorella] fusca. Put plainly: Antimicrobial activity against Chlorella fusca at 2 mg/ml. The following applies: Scenedesmus fuscus; read-out: IZ.
Experiment [2] has as its system [Chlorella] fusca. Put plainly: Antimicrobial activity against Chlorella fusca at 8 mg/ml. The note with it: Scenedesmus fuscus; read-out: IZ.
Experiment [3] deals with [Chlorella] fusca. As to the kind of experiment: Antimicrobial activity against Chlorella fusca at 1 mg/ml. The note with it: Scenedesmus fuscus; read-out: IZ.
Experiment [4] relates to [Chlorella] fusca. As to the kind of experiment: Antimicrobial activity against Chlorella fusca at 5 mg/ml. The following applies: Scenedesmus fuscus; read-out: IZ.
Experiment [5] relates to Priestia megaterium. Put plainly: Antimicrobial activity against Bacillus megaterium 1mg/ml.
Experiment [6] deals with Priestia megaterium. Put plainly: Antimicrobial activity against Bacillus megaterium 5 mg/ml.
In experiment [7] the test system is Microbotryum violaceum. As to the kind of experiment: Antimicrobial activity against Microbotryum violaceum 1 mg/ml.
Experiment [8] has as its system Microbotryum violaceum. As to the kind of experiment: Antimicrobial activity against Microbotryum violaceum 5 mg/ml.

In the case of `CCO[C@H]1OC[C@]2(C)c3c(ccc(C)c31)C(C)(C)[C@H]2O`, the zone of inhibition at 2000 µg/mL in experiment [Chlorella] fusca [1] turned out to be 5 mm. Also, in experiment [Chlorella] fusca [2], the zone of inhibition at 8000 µg/mL worked out at 6 mm.

Consider `CO[C@H]1OC[C@]2(C)c3c(ccc(C)c31)C(C)(C)[C@H]2O`, for which the zone of inhibition at 1000 µg/mL in experiment [Chlorella] fusca [3] is 0 mm. The zone of inhibition at 5000 µg/mL in experiment [Chlorella] fusca [4] was 6 mm. Further, the “inhibition zone (IZ)” value in the experiment on Priestia megaterium [5] is reported as 0 mm; in the experiment with Priestia megaterium [6], 6 mm; with Microbotryum violaceum [7], 0 mm; in the experiment on Microbotryum violaceum [8] it was 8 mm.

As to `Cc1ccc2c3c1[C@@H](O)OC[C@@]3(C)[C@H](O)C2(C)C`, the zone of inhibition at 1000 µg/mL in experiment [Chlorella] fusca [3] was determined as 0 mm. The zone of inhibition at 5000 µg/mL in experiment [Chlorella] fusca [4] was 12 mm. Further, the “inhibition zone (IZ)” value with Priestia megaterium [5] was 0 mm; with Priestia megaterium [6], 6 mm; in the experiment on Microbotryum violaceum [7], 0 mm; in the experiment with Microbotryum violaceum [8], 6 mm.

In the case of `C[C@@H]1C[C@H](O)[C@H]2C(C)(C)C[C@]3(C)CO[C@H](O)[C@@H]1[C@@]23O`, in experiment [Chlorella] fusca [3], the zone of inhibition at 1000 µg/mL is 0 mm. Moreover, in experiment [Chlorella] fusca [4], the zone of inhibition at 5000 µg/mL was found to be 0 mm. The “inhibition zone (IZ)” value in the experiment with Priestia megaterium [5], in the experiment with Priestia megaterium [6], in the experiment on Microbotryum violaceum [7] and with Microbotryum violaceum [8] was 0 mm in each case.

In the case of `C[C@@H]1C[C@H](O)[C@@H]2C(=C1C=O)[C@@](C)(CO)[C@H](O)C2(C)C`, the zone of inhibition at 2000 µg/mL in experiment [Chlorella] fusca [1] turned out to be 0 mm. Besides, the zone of inhibition at 8000 µg/mL in experiment [Chlorella] fusca [2] worked out at 6 mm.

Regarding `Cc1ccc2c3c1COC[C@@]3(C)[C@H](O)C2(C)C`, the zone of inhibition at 2000 µg/mL in experiment [Chlorella] fusca [1] turned out to be 5 mm. In addition, the zone of inhibition at 8000 µg/mL in experiment [Chlorella] fusca [2] was 5 mm.

On to `Cc1ccc2c3c1C(=O)OC[C@@]3(C)[C@H](O)C2(C)C`, for which the zone of inhibition at 1000 µg/mL in experiment [Chlorella] fusca [3] came to 0 mm. Besides, the zone of inhibition at 5000 µg/mL in experiment [Chlorella] fusca [4] is 8 mm. For the same compound, the “inhibition zone (IZ)” value with Priestia megaterium [5] turned out to be 0 mm; with Priestia megaterium [6], 6 mm; in the experiment on Microbotryum violaceum [7], 0 mm; in the experiment on Microbotryum violaceum [8], 0 mm.

As for `C[C@@H]1C[C@H](O)[C@@H]2C3=C1[C@@H](O)OC[C@@]3(C)[C@H](O)C2(C)C`, the zone of inhibition at 2000 µg/mL in experiment [Chlorella] fusca [1] stood at 0 mm. The zone of inhibition at 8000 µg/mL in experiment [Chlorella] fusca [2] was determined as 7 mm.

In the case of `C[C@@H]1C[C@H](O)C2=C3C1=COC[C@@]3(C)[C@H](O)C2(C)C`, the zone of inhibition at 1000 µg/mL in experiment [Chlorella] fusca [3] was 0 mm. Moreover, in experiment [Chlorella] fusca [4], the zone of inhibition at 5000 µg/mL was found to be 7 mm. In addition, the “inhibition zone (IZ)” value in the experiment on Priestia megaterium [5] came out at 0 mm; in the experiment with Priestia megaterium [6] it was 0 mm; in the experiment with Microbotryum violaceum [7], 0 mm; in the experiment with Microbotryum violaceum [8], 5 mm.

With `C[C@@H]1CCC2=C3C1=COC[C@@]3(C)[C@H](O)C2(C)C`, the zone of inhibition at 1000 µg/mL in experiment [Chlorella] fusca [3] was 0 mm. The zone of inhibition at 5000 µg/mL in experiment [Chlorella] fusca [4] came out at 6 mm. For the same compound, the “inhibition zone (IZ)” value was 0 mm with Priestia megaterium [5], 0 mm in the experiment on Priestia megaterium [6], 0 mm in the experiment with Microbotryum violaceum [7] and 5 mm in the experiment with Microbotryum violaceum [8].

As for `CO[C@H]1OC[C@@]2(C)[C@H](O)C(C)(C)[C@@H]3[C@@H](O)C[C@@H](C)[C@H]1[C@@]32O`, in experiment [Chlorella] fusca [3], the zone of inhibition at 1000 µg/mL was 0 mm. Further, in experiment [Chlorella] fusca [4], the zone of inhibition at 5000 µg/mL amounted to 0 mm. The “inhibition zone (IZ)” value in the experiment on Priestia megaterium [5], in the experiment with Priestia megaterium [6], in the experiment with Microbotryum violaceum [7] and in the experiment on Microbotryum violaceum [8] was 0 mm each time.

Take `C[C@@H]1CC=C2[C@@H]3[C@H]1CC(O)[C@@]3(C=O)CC2(C)C` (some centres not stated): the zone of inhibition at 1000 µg/mL in experiment [Chlorella] fusca [3] turned out to be 0 mm. Further, the zone of inhibition at 5000 µg/mL in experiment [Chlorella] fusca [4] came out at 10 mm. For the same compound, the “inhibition zone (IZ)” value in the experiment with Priestia megaterium [5], in the experiment with Priestia megaterium [6], in the experiment on Microbotryum violaceum [7] and with Microbotryum violaceum [8] was 0 mm throughout.

Take `CO[C@H]1OC[C@@]2(C)[C@H](OC(C)=O)C(C)(C)[C@@H]3[C@@H](OC(C)=O)C[C@@H](C)[C@H]1[C@@]32O`: in experiment [Chlorella] fusca [3], the zone of inhibition at 1000 µg/mL is 0 mm. Besides, the zone of inhibition at 5000 µg/mL in experiment [Chlorella] fusca [4] is 0 mm. For the same compound, the “inhibition zone (IZ)” value with Priestia megaterium [5], with Priestia megaterium [6], in the experiment on Microbotryum violaceum [7] and with Microbotryum violaceum [8] was 0 mm in each case.

The values are drawn from ChEMBL document CHEMBL1158707, “Botryane metabolites from the fungus Geniculosporium sp. isolated from the marine red alga Polysiphonia” (2005).
